Laboratory results taken from patent publication US20120064020A1, “NOVEL COMPOSITION” (priority 2009, published 2012).

System: IL-8
Experiment: Expression of IL-8 by epidermal human skin model (EST-1000) after IL-1alpha stimulation
Assay type: cell-based
Conditions: Table 7, 2 wt.-% in vehicle
Protocol: The Expression of IL-8 by epidermal human skin model after IL-1alpha stimulation has been assessed using 3D-Reconstituted Epidermis Models (EST-1000) (Cellsystems GmbH, St. Katharinen, Germany). The EST-1000 samples were equilibrated over night at 37° C. in a 5% CO^2 atmosphere according to manufacturer's instructions. Then, the EST-1000 samples were stimulated by addition of 10 ng/ml IL-1alpha (Peprotech, UK) to the culture medium.
Afterwards, one sample was treated with the vehicle (i.e. squalane, e.g. commercially available under the tradename Fitoderm®), whereas the other sample was treated with a mixture consisting of the vehicle comprising 2 wt.-% of the mixture of example 1 by topical addition to the tissue samples. At distinct time points, 200 ul medium samples were taken and frozen for further analysis. As can be retrieved from the results presented in table, the expression of the pro-inflammatory cytokine IL-8 by the epidermal human skin model (EST-1000) is suppressed by the addition of the composition according to example 1 in a dose dependent manner.
Furthermore, the expression of IL-8 by epidermal human skin model after IL-1alpha stimulation was assessed as outlined above using the single compounds CLA, Syn Coll®, spent grain wax as well as mixtures thereof.

## Conjugated linoleic acid [CLA]
T = 24 h
  Expression of cytokine IL-8, T = 24 h: 8161
T = 0 h
  Expression of cytokine IL-8, t = 0 h: 61
T = 2 h
  Expression of cytokine IL-8, t = 2 h: 2536
T = 4 h
  Expression of cytokine IL-8, t = 4 h: 5056
T = 8 h
  Expression of cytokine IL-8, t = 8 h: 5805
